Reference: patent publication US7589092B2, “Prodrugs of heteroaryl compounds” (Koronis Pharmaceuticals, Incorporated, priority 2003, dated 2009)

Key:
[1] = system: HIV; conditions: Bouchard et al.; cited from earlier work
[2] = Bioavailability / pharmacokinetic study in rats; format: in vivo; conditions: rat
Description: This study tested the bioavailability of different test compounds in rats, by oral gavage administration, at prescribed dose levels. The animals tested in this study were Rattus norvegicus, CD strain, from Charles River Canada (Montreal, Canada). Six males were included in each test group. Their weight ranged from 200 to 250 grams before fasting. […] Rats were individually housed in Nalgene rat cages with stainless steel covers. The animal room environment was controlled and monitored daily. The temperature ranged from 18 to 26° C. and the relative humidity ranged from 30%-70%. The photocycle was 12 hours light and 12 hours dark. All animals were submitted to a general physical examination and only those found healthy were admitted for the study. All selected animals were given two days to adjust to laboratory conditions before the study began. Teklad rodent Diet and water were constantly available to the rats throughout the acclimatization and study periods. Forty-eight hours prior to the initiation of the study, animals were randomly selected and two subsets of 3 male rats per group were formed. Due to the large volume of blood taken, collections will be done by alternating timepoints between subsets. All animals were fasted for twelve hours prior to the initiation of the study. […] Blood was collected from the orbital sinus of animals from each group at thirty minutes and at 1, 2, 4, and 12 hours after dosing. At each blood collection time point, three rats per group were bled. […] Oral and IV dosages of DHAdC, as well as oral dosages of prodrugs C7-DHAdC and C9-DHAdC were recorded. The rats were administered 100 mg/kg DHAdC or DHAdC equivalent in the case of prodrugs. The maximum concentration (Cmax), clearance (AUC∞), half-life (T1/2), and % Oral Bioavailability were recorded and are presented in Table 1: […]

[3] = Bioavailability / pharmacokinetic study in dogs; format: in vivo, Canis familiaris; conditions: dog
Description: This study tested the bioavailability of different test compounds in dogs, by intravenous or oral gavage administration, at prescribed dose levels. The animals tested in this study were Canis familiaris, from Harlan Sprague Dawley (Indianapolis, Ind.). Four dogs (2 males and 2 females), with an average age of seven months, were included in each test group. The dogs were identified by ear tattoos, and given a fourteen day acclimatization period prior to the commencement of testing. Dogs were group housed but separated by sex. The animal room environment was controlled and monitored daily. The temperature ranged from 18 to 29° C. and the relative humidity ranged from 30%-70%. The photocycle was 12 hours light and 12 hours dark. All animals were submitted to a general physical examination and only those found healthy were admitted for the study. All selected animals were given two days to adjust to laboratory conditions before the study began. Teklad Dog Diet was fed twice daily and water was constantly available to the dogs throughout the acclimatization and study periods. Twenty-four hours prior to the initiation of the study, animals were randomly selected into two groups with 1 male and 1 female in each group. […] Blood was collected from the v. cephalica antebrachii of each of the two animals prior to study initiation, at thirty minutes and at 1, 2, 4, and 12 hours after dosing. […] IV dosages of DHAdC, as well as oral dosages of prodrugs […] C9-DHAdC were recorded. The dogs were administered 50 mg/kg DHAdC or DHAdC equivalent in the case of prodrugs. The maximum concentration (Cmax), clearance (AUC∞), half-life (T1/2), and % Oral Bioavailability were recorded and are presented in Table 2: […]

[4] = test concentration 100 um, RT, 60 minutes equilibration
Description: The compounds were first dissolved in a 60% methanol/40% water (v/v) solution containing 1% DMSO and brought to a concentration of 100 μM. The optimal detection wavelength was determined and calibration studies were performed with the solution. After calibration, the compounds were placed into n-octanol-PBS buffer at pH 7.4 at RT. The mixture was shaken and allowed to equilibrate for 60 minutes. The amount of compound in the PBS buffer phase was then determined by HPLC/UV-Vis. The amount of compound in n-octanol was determined by subtracting […]. This experiment was conducted for three samples. These three samples were then each corrected for volume and the results were averaged. Log D was calculated as the Log10 of the amount of compound in the n-octanol phase divided by the amount of compound in the buffer phase.
Lipophilicity is a major structural factor that influences the pharmacokinetic and pharmacodynamic behavior of compounds. In this assay, prodrugs C7-DHAdC, C8-DHAdC, and C9-DHAdC were partitioned between n-octanol and phosphate buffered saline (PBS).

[5] = deamination product of 5-aza-dC; Momparler et al.; cited from earlier work
[6] = oral gavage, 100 mg/kg DHAdC or DHAdC equivalent
[7] = oral gavage, 50 mg/kg DHAdC equivalent
[8] = male, CD, blood, IV, 100 mg/kg DHAdC
[9] = male, CD, blood, oral gavage, 100 mg/kg DHAdC or DHAdC equivalent
[10] = both sexes, blood, IV, 50 mg/kg DHAdC

For `Nc1ncn([C@H]2C[C@H](O)[C@@H](CO)O2)c(=O)n1` [Compound 5-aza-dC, 5-aza-2′-deoxycytidine], which “HIV replication in vitro” value [1] is on record?
The value was “inhibit HIV replication in vitro”.

For `CCCCCCCCCOC(=O)NC1=NC(=O)N([C@H]2C[C@H](O)[C@@H](CO)O2)CN1` [Compound C9-DHAdC, N^4-Nonyloxycarbonyl-β-2′-deoxy-5,6-dihydro-5-azacytidine], which “AUC∞” value [2, 6] is on record?
Its value is 26,472 ng-hr/mL.

What about the Cmax [2, 6] of the same compound?
The Cmax was 5,550 ng/mL.

What about the Oral bioavailability [2, 6] of the same compound?
The Oral bioavailability was 35%.

And the T1/2 [2, 6]?
Its T1/2 is 3.6 h.

What about the “AUC∞” value [3, 7] of the same compound?
The value was 54,540 ng-hr/mL.

What about the Cmax [3, 7] of the same compound?
Its Cmax is 8,932 ng/mL.

What about the Oral bioavailability [3, 7] of the same compound?
The Oral bioavailability was 36%.

What about the T1/2 [3, 7] of the same compound?
The T1/2 was 2.2 h.

What about the “log D n-Octanol PBS pH 7.4” value [4] of the same compound?
The value was 3.16.

With `O=c1ncn([C@H]2C[C@H](O)[C@@H](CO)O2)c(=O)[nH]1` [Compound 5-aza-dU, 5-aza-2′-deoxyuridine] as the compound, how does the antineoplastic activity [5] read?
Its antineoplastic activity is “loss of antineoplastic activity”.

Which “AUC∞” value [3, 7] does the source give for `CCCCCCCCOC(=O)NC1=NC(=O)N([C@H]2C[C@H](O)[C@@H](CO)O2)CN1` [Compound C8-DHAdC, N^4-Octyloxycarbonyl-β-2′-deoxy-5,6-dihydro-5-azacytidine] here?
Its value is 17,845 ng-hr/mL.

What about the Cmax [3, 7] of the same compound?
The Cmax was 5,172 ng/mL.

What about the Oral bioavailability [3, 7] of the same compound?
The Oral bioavailability was 11%.

What about the T1/2 [3, 7] of the same compound?
Its T1/2 is 2.8 h.

And the “log D n-Octanol PBS pH 7.4” value [4]?
Its value is 2.56.

Which results are given for `CCCCCCCOC(=O)NC1=NC(=O)N([C@H]2C[C@H](O)[C@@H](CO)O2)CN1` [Compound C7-DHAdC, N^4-Heptyloxycarbonyl-β-2′-deoxy-5,6-dihydro-5-azacytidine]?
AUC∞ [2, 6]: 32,101 ng-hr/mL; Cmax [2, 6]: 5,577 ng/mL; Oral bioavailability [2, 6]: 43%; T1/2 [2, 6]: 3.9 h; AUC∞ [3, 7]: 59,377 ng-hr/mL; Cmax [3, 7]: 11,282 ng/mL; Oral bioavailability [3, 7]: 51%; T1/2 [3, 7]: 2.1 h; log D n-Octanol PBS pH 7.4 [4]: 2.04

Which results are given for `NC1=NC(=O)N([C@H]2C[C@H](O)[C@@H](CO)O2)CN1` [DHAdC, 5,6-dihydro-5-aza-2′-deoxycytidine]?
AUC(0-inf) [2, 8]: 75000 ng·h/mL; half-life [2, 8]: 1.8 h; Cmax ([2]; male, CD, blood, IV, 100 mg/kg DHAdC, read-out: Cmax): 40000 ng/mL; AUC(0-inf) [2, 9]: 8540 ng·h/mL; bioavailability [2, 9]: 11%; half-life [2, 9]: 0.8 h; Cmax ([2]; male, CD, blood, oral gavage, 100 mg/kg DHAdC or DHAdC equivalent, read-out: Cmax): 1860 ng/mL; AUC(0-inf) [3, 10]: 156000 ng·h/mL; half-life [3, 10]: 2.1 h; Cmax ([3]; both sexes, blood, IV, 50 mg/kg DHAdC, read-out: Cmax): 76300 ng/mL
